Data published in patent US20230158057A1, “COMPOSITIONS AND METHODS FOR THE TREATMENT OF PAIN” (Duke University, priority 2020, published 2023).
Entries after “also recorded” stand apart in the source; their conditions may differ.

Experiments:
naïve mice [1] = assay: Von Frey testing of mechanical thresholds in naïve mice (WT and knockout); assay type: in vivo, mouse; conditions: naïve mice; for dose exhibiting the largest increase in paw withdrawal thresholds: i.t.; for mechanical sensory thresholds (von Frey): i.t. injection
Procedure: Reflexive-based sensory testing in mice: All behavioral testing in mice was performed in a specialized humidity- and light-controlled mouse behavior facility maintained at 21-24° C., with testing conducted between the hours of 8:00-16:00. Mice were habituated to the testing environment for at least 2 days prior to baseline testing. All tests were performed by an experimenter who was blinded to experimental conditions, including genotypes and drug treatment. For multi-day experiments using STING agonists, mice were tested in the same room at approximately the same time each day. To measure mechanical sensitivity, mice were confined to individual chambers with non-transparent borders on an elevated mesh rack, preventing mice from visualizing or interacting with one another during the testing period. Mouse hindpaws were stimulated with a series of von Frey filaments with logarithmically increasing stiffness (0.02-2.56 g, Stoelting), which was applied perpendicularly to the central plantar surface. We determined the 50% paw withdrawal threshold using the up-down method. […] To test cold sensitivity, mice were again placed on an elevated metal mesh floor in isolated chambers, and a ˜20 μl acetone drop was applied to the central plantar surface of the mouse hindpaw using a pipette.
For the experiments utilizing i.t. 2′3′-cGAMP and 3′3′-cGAMP complexed with Lipofectamine 2000 (ThermoFisher, 11668), 10 μg 2′3′-cGAMP or 3′3′-cGAMP was incubated at room temperature for 30 minutes in sterile PBS with 3 μl Lipofectamine 2000. In this case, the vehicle control was 3 μl Lipofectamine 2000 in PBS, as in a previous study which used this approach. […] For experiments utilizing rabbit anti-IFN-α or -β neutralizing antibodies, a polyclonal rabbit IgG antibody served as the control. Antibodies were utilized in vivo at 300 ng/mouse or in vitro at 300 ng/ml. Paclitaxel was administered via repeated i.p. injections every other day for 4 days at a dose of 2 mg/kg. For the whole mount DRG recordings, young mice (4-6 weeks) were administered a single 6 mg/kg dose one week prior to the experiment. All intrathecal injections were performed under brief anesthesia with 2-2.5% isoflurane. Drugs administered by intrathecal injection were preceded by shaving a small area on the back corresponding to the injection site, followed by spinal puncture using a 30-gauge needle between the L5-L6 levels to deliver a maximum of 5-10 μl into the cerebrospinal fluid. Successful intrathecal injection was always confirmed by a brisk tail-flick upon delivery. For the experiments involving intraplantar (i.pl.) injection, IFN-α was dissolved in sterile saline and administered at the concentrations indicated in the figures in a total volume of 20 μl, administered under 2-2.5% isoflurane anesthesia to minimize animal stress. For these experiments, vehicle (saline) or IFN-α were slowly and carefully expressed into the left dorsal hindpaw of anesthetized mice and allowed to perfuse the tissue for ˜20 seconds prior to removal of the needle. […] Mechanical sensory testing was done anteriorly and care was taken to avoid Von Frey filament stimulation of the injection site.

mice with CIPN or BCP = assay: Conditioned place preference (CPP) assay in chronic pain (CIPN and BCP) models; assay type: in vivo, mouse; conditions: for conditioned place preference (ongoing pain): mice with CIPN or BCP, i.t.; for conditioned place preference, single pairing: mice with neuropathic pain (CIPN), i.t. 35 nmol
Procedure: All mice underwent 3 d of preconditioning habituation in a temperature- and humidity-controlled room under low-light conditions between 08:00-16:00 in a two compartment CPP chamber (Med Associates Inc.). The two compartments differed by both visual and tactile cues. On the 4th day, animal behavior was video-recorded using a webcam connected to a laptop computer, and animal movement was automatically tracked for 15 minutes using the ANY-Maze software (Stoelting). […] On the conditioning day(s) (day 5 for single trial; day 5-7 for repeated trials), two pairing sessions were performed, with vehicle pairing in the AM session and drug treatment (e.g., vehicle or drug) in the PM session, separated by 4 h. In the AM session, mice always received vehicle (10 μl saline, delivered via i.t. injection under isoflurane anesthesia) and were immediately placed in their preferred CPP chamber for 2 h. […] 24 h after the completion of the pairing experiments, mice were placed in the CPP test box with access to both chambers and behavior was recorded for 15 minutes and analyzed using the ANY-Maze software for chamber preference. CPP score was calculated as the inverse of the time spent in the preferred chamber according to: [post-preference (sec)—pre-preference (sec)]. Vehicle served as a negative control for these experiments, while morphine (three trials/naïve mice) or clonidine (single trial/ongoing pain) served as positive controls.

naïve mice [2] = assay: Naloxone reversal of antinociception; assay type: in vivo, mouse; conditions: naloxone 10 mg/kg i.p.; morphine 2 nmol i.t., DMXAA or ADU-S100 35 nmol i.t.
Procedure: Following naloxone delivery, mice were tested within 15 minutes. For the experiments testing whether mice developed tolerance to the effects of STING agonists, vehicle or DMXAA (35 nmol) were administered via i.t. injection. Naïve mice received five single injections at D0, D3, D6, D9, and D12, with testing each day 4 h after injection. SNI mice received injections on two consecutive days beginning on D7 (D7 and D8) and every 48 h afterwards following the conclusion of sensory testing (D10, D12, D14, D16, and D18). Spinal cords (L4-L5) were collected for analysis of glial cell activation at D21 following SNI.

IFN-α = IFN-α ELISA on DRGs incubated ex vivo or cultured with ADU-S100; assay type: cell-based, mouse
Procedure: (§1) ELISA: Mouse high-sensitivity IFN-α ELISA kit (42115-1) and IFN-β ELISA kit (42410-1) were purchased from PBL Assay Science and performed on serum, DRG lysate, or cell culture medium according to the manufacturer's instructions. Serum was obtained from whole blood through cardiac puncture at the time of euthanasia, followed by incubation for 30 minutes at 35° C. to promote clotting. Subsequently, samples were centrifuged at 4° C. at 2,500 xg for 15 minutes, followed by careful isolation of serum (supernatant). For ELISA on cell culture medium, samples were first concentrated approximately 10-fold using Amicon centrifugal filters (Millipore Sigma, UFC8030). DRGs were lysed by mechanical homogenization in a pH 7.4 CHAPS lysis buffer (FivePhoton Biochemicals, CIB-1-7.4-60) supplemented with a protease inhibitor cocktail (Millipore Sigma, 11697498001) and phosphatase inhibitor cocktail (FivePhoton Biochemicals, PIC1). For DRG lysate, Pierce BCA (ThermoFisher, 23225) assays were performed according to the manufacturer's instructions to quantify protein concentration, and ELISA results are reported normalized to protein concentration (pg/mg DRG tissue). To measure IFN-β levels in cerebrospinal fluid (CSF) isolated by spinal catheter from NHPs, we utilized a cynomolgus IFN-β ELISA kit (PBL Assay Science, 46415-1), which was performed using 50 μl CSF according to the manufacturer's instructions. Standard curves were performed in all experiments and values interpolated using GraphPad Prism version.

IFN-β = IFN-β ELISA on DRGs incubated ex vivo or cultured with ADU-S100; assay type: cell-based, mouse; conditions: for IFN-β levels in DRG lysate: ex vivo incubation 30 μM, 2 h
Procedure: as §1

[3] = cultured DRGs from STING-WT mice

Compound | dose exhibiting the largest increase in paw withdrawal thresholds (naïve mice [1]) [µg] | mechanical sensory thresholds (von Frey) (naïve mice [1]) | conditioned place preference (ongoing pain) (mice with CIPN or BCP) | conditioned place preference, single pairing (mice with CIPN or BCP) | effect of naloxone on the antinociception of the substance (naïve mice [2]) | IFN-α in culture medium (IFN-α; [3]) | increase in IFN-α in STING-KO and STING-cKO DRGs (IFN-α; ex vivo incubation) | IFN-α levels in DRG lysate (IFN-α; ex vivo incubation 30 μM, 2 h, WT mice) | IFN-β in culture medium (IFN-β; [3]) | increase in IFN-β in STING-KO and STING-cKO DRGs (IFN-β; ex vivo incubation) | IFN-β levels in DRG lysate (IFN-β; STINGfx/fx, Nav1.8-Cre mice) | IFN-β levels in DRG lysate (IFN-β; WT mice)
Nc1ncnc2c1ncn2[C@@H]1O[C@@H]2COP(=O)([S-])O[C@@H]3[C@H](O)[C@@H](COP([O-])(=S)O[C@H]2[C@H]1O)O[C@H]3n1cnc2c(N)ncnc21.[Na+].[Na+] (stereo partly drawn) [ADU-S100, (2′-5′)-[P(R)]-5′-O-[(R)-hydroxymercaptophosphinyl]-P-thioadenylyl-adenosine cyclic dinucleotide] | 25 | induced dose-dependent antinociception | induced CPP in both models | induced comparable CPP as clonidine | had no effect | increased IFN-α and IFN-β in the culture medium | abolished in STING-KO mice and largely abolished in STING-cKO mice | IFN-α levels in DRG lysate were increased | increased IFN-α and IFN-β in the culture medium | abolished in STING-KO mice and largely abolished in STING-cKO mice | significant elevation of IFN-β in STINGfx/fx; Nav1.8-Cre DRG lysate, but this increase was significantly lower than that seen in WT mice | IFN-β levels in DRG lysate were increased
Cc1ccc2c(=O)c3cccc(CC(=O)O)c3oc2c1C [DMXAA, 2-(5,6-dimethyl-9-oxo-9H-xanthen-4-yl)acetic acid] | 10 | induced dose-dependent antinociception; also recorded: dose-dependent increase in paw withdrawal thresholds | induced CPP in both models | induced comparable CPP as clonidine | had no effect |  |  |  |  |  |  | 
